# Legend:
# [1] = test system: Stat1; assay: Stat1 nuclear translocation assay in mixed primary oligodendrocyte cultures; assay type: cell-based, mice; details: 100 U/mL IFN-γ for 30 min, one hundred PLP positive cells counted
# Description: Mixed primary oligodendrocyte cultures were prepared as previously described (Baerwald et al., 2000). Briefly, brain tissue was harvested from 2-3-day-old newborn pups of PLP/SOCS1 and C57B1/6J matings. Because the litters contained transgenic and wild-type pups, the brain of each animal was processed individually, cultured separately, and later genotype matched. Each brain was digested separately using 0.25% trypsin and 10 μg/ml of DNAaseI (Invitrogen) in Dulbecco's modified Eagle's medium (DMEM) for 20 min at 37° C., and cells were cultured on separate poly-D-lysine-coated […] flasks (Sigma-Aldrich). The cultures were maintained with 10% fetal bovine serum DMEM at 37° C. with 5% CO2 for 12 days, and then switched to a defined medium containing […], 50 μg/ml of transferrin, 30 nM of selenium, 10 nM of biotin, 10 nM of progesterone, 15 nM of T3, 0.1% bovine serum albumin, and 1% ampicillin-streptomycin (Sigma-Aldrich). […] One hundred PLP positive cells were manually counted in both wild-type and PLP/SOCS1 cultures. […]
# The responsiveness of PLP/SOCS1 oligodendrocytes to IFN-γ was studied in primary mixed glial cultures. […] In contrast, Stat1 nuclear translocation was detected only in occasional PLP positive oligodendrocytes (6±2 cells) following IFN-γ stimulation (p<0.05).
# [2] = test system: corpus callosum; assay: Cuprizone remyelination in double transgenic mice on PERK+/+ or PERK+/− background; assay type: in vivo; details: for remyelinated axons: 9 weeks
# From the text: The involvement of the ER stress response in the reduction caused by IFN-γ to remyelinate lesions was examined in transgenic mice that were generated to be heterozygous for a loss of function mutation in pancreatic ER kinase (PERK) (Harding, et al., (2001) Mol Cell 7:1153-1163), and to be temporally regulated for expressing INF-γ in the CNS. TRE/IFN-γ mice were first crossed with PERK+/− mice (Harding, et al. (2001) Mol. Cell 7: 1153-1163) on the C57BL/6 background to generate mice the carry the PERK mutation, and the resulting progeny were crossed to GFAP/tTA mice to obtain transgenic mice that were heterozygous for the PERK mutation. The effect of PERK on remyelination in the presence or absence of INF-γ was evaluated as evaluated as a function of the level of meylination of oligodendrocytes in remyelinating lesions and the number of oligodendrocytes present in the remyelinating lesion.
# The extent of remyelination was assessed as described in the previous examples in the corpus callosum of PERK+/+ and PERK+/− mice that were made to express INF-γ (DOX−PERK+/+ and DOX−PERK+/−), and in mice in which the expression of INF-γ was repressed (DOX+PERK+/+ and DOX+PERK+/−). Remyelination was determined by electron microscopy, and was related to the number of CC1 positive oligodendrocytes and the level of caspase-3 expression in the corpus callosum of all animals. The level of caspase-3 was determined by immunohistochemical methods using anti capsase antibody (active-casoase-3 antibody, 1:50; Cel Signaling Technology) and according to the method described in Example 1. Demyelination was induced in six-week-old GFAP/tTA; TRE/IFN-γ double transgenic mice on a PERK+/− background that had been maintained on doxycycline, by simultaneously treating the mice with 0.2% cuprizone and releasing them from doxycycline (DOX−PERK+/−). Remyelination was allowed to occur by withdrawing cuprizone at week 6.
substance,measurement,setting,value
IFN-γ: pleotropic cytokine secreted by activated T lymphocytes and natural killer cells; delivered to the CNS by transgene or added as recombinant protein,PLP positive oligodendrocytes with Stat1 nuclear translocation,[1]; PLP/SOCS1 cultures,6±2 cells
same,PLP positive oligodendrocytes with Stat1 nuclear translocation,[1]; wild-type cultures,96±3 cells
same,remyelinated axons,[2]; DOX−PERK+/+,31.1%±7.6%
same,CC1 positive oligodendrocytes,"[2]; DOX−PERK+/+, week 9",123.2±27.5 /0.04 mm^2
same,remyelinated axons,[2]; DOX−PERK+/−,15.6%±7.6%
same,"caspase-3 positive oligodendrocytes, DOX−PERK+/− relative to DOX−PERK+/+",[2]; week 9,2.3 times

# — patent US8053627B2, “Methods for treating demyelination disorders” (University of Chicago, priority 2005, dated 2011)
